Assays:
[1] = for Normal melting temperature: Crystal; for mass density / viscosity: 298.15 K, 101.3 kPa; for mass density / viscosity / vapor or sublimation pressure: Liquid; for viscosity: Capillary tube (Ostwald / Ubbelohde) method; for vapor or sublimation pressure: Ebulliometric method (Recirculating still)
[2] = xn = mol fraction of the nth substance listed; details: 298.15 K, 101 kPa, Liquid; for viscosity: Capillary tube (Ostwald / Ubbelohde) method
[3] = refractive index (Na D-line) (dimensionless); xn = mol fraction of the nth substance listed; details: 298.15 K, 101 kPa, Liquid, Standard Abbe refractometry
[4] = refractive index (Na D-line) (dimensionless); details: 298.15 K; 101.33 kPa; Liquid; Standard Abbe refractometry

O [water]
Details | Normal melting temperature [°C]
[1] | -0.10

CC(O)CO (centres undefined) [1,2-propanediol] + CC1COC(=O)O1
x1 = 1
Details | mass density [kg/m3] | refractive index | viscosity [mPa·s]
[2] | 1031.6 | – | 44.45
[3] | – | 1.4313 | –

CC(O)CO (centres undefined) [1,2-propanediol]
Details | mass density [kg/m3] | refractive index | viscosity [mPa·s]
[1] | 1031.6 | – | 44.45
[4] | – | 1.4313 | –

[1]
Details | vapor or sublimation pressure [kPa]
378 K | 4
398.24 K | 10
402.54 K | 12
415.13 K | 20
425.72 K | 30
433.59 K | 40
439.9 K | 50
445.2 K | 60
449.79 K | 70
453.84 K | 80
457.48 K | 90
460.79 K | 100

CC1COC(=O)O1 (centres undefined) [4-methyl-1,3-dioxolan-2-one]
Details | mass density [kg/m3] | refractive index | viscosity [mPa·s]
[1] | 1199.4 | – | 2.39
[4] | – | 1.4198 | –

[1]
Details | vapor or sublimation pressure [kPa]
407.97 K | 4
432.45 K | 10
437.77 K | 12
453.6 K | 20
467.23 K | 30
477.53 K | 40
485.91 K | 50

CCOC(=O)CCC(=O)OCC [diethyl butanedioate] + O=C1CCCO1
Details | mass density, [2] [kg/m3] | refractive index, [3] | viscosity, [2] [mPa·s]
x2 = 0 | 1035.5 | 1.4179 | 2.393
x2 = 0.05 | 1037.5 | 1.4185 | 2.381
x2 = 0.1 | 1040 | 1.419 | 2.375
x2 = 0.2 | 1045.3 | 1.4201 | 2.356
x2 = 0.2999 | 1051.1 | 1.4213 | 2.318
x2 = 0.4 | 1057.8 | 1.4227 | 2.284
x2 = 0.5 | 1065.3 | 1.4242 | 2.226
x2 = 0.6 | 1073.8 | 1.4259 | 2.153
x2 = 0.7 | 1083.5 | 1.4278 | 2.073
x2 = 0.8 | 1094.9 | 1.4299 | 1.952
x2 = 0.9 | 1108.4 | 1.4323 | 1.817
x2 = 0.95 | 1116.2 | 1.4336 | 1.745

CCOC(=O)CCC(=O)OCC [diethyl butanedioate]
Details | Normal melting temperature [°C] | mass density [kg/m3] | refractive index | viscosity [mPa·s]
[1] | -21.52 | 1035.5 | – | 2.393
[4] | – | – | 1.4179 | –

[1]
Details | vapor or sublimation pressure [kPa]
392.46 K | 4
417.39 K | 10
423.15 K | 12
437.53 K | 20
453.15 K | 30
462.1 K | 40
467.78 K | 50

CC1COC(=O)O1 (centres undefined) [4-methyl-1,3-dioxolan-2-one] + CC(O)CO
Details | mass density, [2] [kg/m3] | refractive index, [3] | viscosity, [2] [mPa·s]
x2 = 0 | 1199.4 | 1.4198 | 2.39
x2 = 0.01 | – | – | 2.534
x2 = 0.05 | 1190.9 | 1.4199 | 2.436
x2 = 0.1 | 1182.4 | 1.4199 | –
x2 = 0.2 | 1166.4 | 1.4207 | 2.921
x2 = 0.3 | 1150.2 | 1.4213 | 3.55
x2 = 0.4 | 1134.2 | 1.4223 | 4.758
x2 = 0.5 | 1117.9 | 1.4235 | 6.071
x2 = 0.6 | 1101.6 | 1.4249 | 8.461
x2 = 0.7 | 1085.1 | 1.4264 | 11.82
x2 = 0.8 | 1068 | 1.4278 | 17.38
x2 = 0.9 | 1050.6 | 1.4294 | 27.54
x2 = 0.9499 | 1041.4 | 1.4305 | 35.66

O=C1CCCO1 [γ-butyrolactone]
Details | Normal melting temperature [°C] | mass density [kg/m3] | refractive index | viscosity [mPa·s]
[1] | -43.72 | 1124.5 | – | 1.654
[4] | – | – | 1.435 | –

[1]
Details | vapor or sublimation pressure [kPa]
376.99 K | 4
400.58 K | 10
405.68 K | 12
420.76 K | 20
433.66 K | 30
443.36 K | 40
451.22 K | 50
457.88 K | 60
463.68 K | 70
468.84 K | 80
473.49 K | 90
477.54 K | 100

O [water] + O=C1CCCO1
x1 = 1
Details | refractive index | viscosity [mPa·s]
[2] | – | 0.8756
[3] | 1.3325 | –

O=C1CCCO1 [γ-butyrolactone] + CCOC(=O)CCC(=O)OCC
x1 = 1
Details | mass density [kg/m3] | refractive index | viscosity [mPa·s]
[2] | 1124.5 | – | 1.654
[3] | – | 1.435 | –

O=C1CCCO1 [γ-butyrolactone] + O
Details | mass density, [2] [kg/m3] | refractive index, [3] | viscosity, [2] [mPa·s]
x2 = 0 | 1124.5 | 1.435 | 1.654
x2 = 0.05 | 1123 | 1.4337 | 1.621
x2 = 0.1002 | 1121.5 | 1.4325 | 1.6
x2 = 0.2 | 1118.2 | 1.4295 | 1.606
x2 = 0.3 | 1115.1 | 1.4265 | 1.645
x2 = 0.4 | 1110.9 | 1.4226 | 1.706
x2 = 0.5 | 1105.9 | 1.4175 | 1.766
x2 = 0.6 | 1098.8 | 1.4116 | 1.8
x2 = 0.7 | 1088.6 | 1.4017 | 1.787
x2 = 0.8 | 1073.2 | 1.3888 | 1.668
x2 = 0.9 | 1047.1 | 1.3684 | 1.385
x2 = 0.95 | 1026.6 | 1.3531 | 1.16
